Data: patent publication US8084003B2, “Ozone detecting device” (Nippon Telegraph and Telephone Corporation, priority 2006, dated 2011)
Like-named read-outs stand apart in the source and are kept apart here.

Legend:
[1] = Deposition of the ultraviolet absorber as powder on the surface of the detecting device; format: physicochemical; conditions: absorber solution in 50 ml acetone or water, device manufactured and dried
[2] = 25° C.
[3] = Ultraviolet absorbing ability dissolved in a solvent (spectrum of transmitted light); format: physicochemical
Experimental: For example, when equal amounts of 2-hydroxy-4-methoxybenzophenone-5-sulfonic acid trihydrate and 4-dodecyloxy-2-hydroxybenzophenone are added, the ultraviolet absorbing ability of 4-dodecyloxy-2-hydroxybenzophenone is 1.25 times that of 2-hydroxy-4-methoxybenzophenone-5-sulfonic acid trihydrate on the average in a wavelength region of 300 to 400 nm.
Although the addition amount of 2-hydroxy-4-methoxybenzophenone-5-sulfonic acid trihydrate is 0.8 g and that of 4-dodecyloxy-2-hydroxybenzophenone is 0.5 g, i.e., there is a difference between the addition amounts, it is impossible to explain why the large difference is produced between the changes in absorbance by ultraviolet radiation when they are applied to ozone detecting devices. Note that the ultraviolet absorbing ability of an ultraviolet absorber is proportional to the addition amount. When dissolved in a solvent, therefore, the absorbing ability of 0.8 g of 2-hydroxy-4-methoxybenzophenone-5-sulfonic acid trihydrate is about 1.3 times that of 0.5 g of 4-dodecyloxy-2-hydroxybenzophenone.

[4] = Ultraviolet exposure test with Artificial Sunlight XC-100AF (no UV filter), reflected-light absorbance at about 618 nm; format: physicochemical; conditions: dye used instead of indigo carmine, with ultraviolet absorber
Experimental: An ultraviolet exposure test (experiment) in which the ozone detecting devices A to G described above are irradiated with ultraviolet light is conducted. In this test, the influence of ultraviolet light was evaluated by using Artificial Sunlight XC-100AF available from SERIC with no UV filter attached. The incident angle of illuminating light to each of ozone detecting devices A to G was set at 20°, the distance from the lower end of the artificial sunlight to each of ozone detecting devices A to G was set at 110 cm, and each of ozone detecting devices A to G was set in a central portion where the intensity of the illuminating light is highest.
Each of ozone detecting devices A to G described above was irradiated with ultraviolet light minute by minute for 1 to 5 min, and the reflected light from the ozone detecting device was measured with a spectrophotometer whenever the device was irradiated. The influence of ultraviolet light was evaluated by using the change in absorbance at a wavelength of about 618 nm as an index.

[5] = other water-soluble ultraviolet absorbers, temperature not given; cited from earlier work

SMILES: CC(C)(C)c1ccc(O)c(-n2nc3ccccc3n2)c1 [2-(2-hydroxy-5-t-butylphenyl)-2H-benzotriazole]
- deposition in the form of powder on the surface of the device [1]: deposits in the form of powder

SMILES: CCC(C)(C)c1cc(-n2nc3ccccc3n2)c(O)c(C(C)(C)CC)c1 [2-(3,5-di-t-pentyl-2-hydroxyphenyl)-2H-benzotriazole]
- deposition in the form of powder on the surface of the device [1]: deposits in the form of powder

SMILES: COc1cc(O)c(C(=O)c2ccccc2)cc1S(=O)(=O)[O-].[Na+] [2-hydroxy-4-methoxybenzophenone-5-sodium sulfonate]
- deposition in the form of powder on the surface of the device [1]: none of these ultraviolet absorbers deposited in the form of powder
- water solubility [2]: more than 2.5 wt %

SMILES: COc1cc(O)c(C(=O)c2ccccc2)cc1S(=O)(=O)O.O.O.O [2-hydroxy-4-methoxybenzophenone-5-sulfonic acid trihydrate]
- absorbing ability of 0.8 g relative to 0.5 g of 4-dodecyloxy-2-hydroxybenzophenone ([3]; dissolved in a solvent, scaled by addition amount): about 1.3 times
- deposition in the form of powder on the surface of the device [1]: none of these ultraviolet absorbers deposited in the form of powder
- water solubility [2]: 25 wt %

SMILES: CCCCCCCCCCCCOc1ccc(C(=O)c2ccccc2)c(O)c1 [4-dodecyloxy-2-hydroxybenzophenone, reference compound]
- ultraviolet absorbing ability relative to 2-hydroxy-4-methoxybenzophenone-5-sulfonic acid trihydrate ([3]; equal amounts added, average in wavelength region 300 to 400 nm): 1.25 times
- deposition in the form of powder on the surface of the device [1]: deposits in the form of powder

SMILES: O=S(=O)([O-])c1ccc(O)c(N=Nc2c(O)ccc3ccccc23)c1.[Na+] [Acid Alizarin Violet N]
- resistance to ultraviolet light with other dyes [4]: possible to increase the resistance to ultraviolet light

SMILES: O=C1c2ccccc2C(=O)c2c1ccc(O)c2O [alizarin]
- resistance to ultraviolet light with other dyes [4]: possible to increase the resistance to ultraviolet light

SMILES: O=C(/C=C/c1ccccc1)c1ccccc1 [chalcone]
- resistance to ultraviolet light with other dyes [4]: possible to increase the resistance to ultraviolet light

SMILES: Nc1ccc(C(=O)O)cc1 [p-aminobenzoic acid]
- water solubility [5]: 0.4 wt %

SMILES: O=C(Oc1ccccc1)c1ccccc1O [phenyl salicylate]
- water solubility [5]: 0.05 wt %
